# From PMC11594329, “Development of LAT1-Selective Nuclear Medicine Therapeutics Using Astatine-211” (International Journal of Molecular Sciences, 2024)
# How the values were obtained:
# PANC-1 tumor model = assay: Tissue distribution in nude mice (PANC-1 tumor model); type: in vivo, BALB/c nu/nu mice; details: nude mice (PANC-1 tumor model)
# Description: BALB/c nu/nu mice (male, 5 weeks old) were purchased from Japan SLC (Shizuoka, Japan) and subcutaneously transplanted at a density of 1 × 10^7 cells/mouse. PANC-1 cells that reached the logarithmic growth phase were transplanted subcutaneously by mixing a 1 × 10^8 cells/mL cell suspension with an equivalent volume of Matrigel (Corning, Corning, NY, USA) to obtain 1 × 10^7 cells per mouse. Experiments were performed after the size of the transplanted tumor had exceeded 50 mm^3. The doses in the distribution experiments were as follows: ^211At-AAMT-OH-L (0.501 ± 0.011 MBq/mouse, 19.91 ± 0.59 g, n = 3) and ^211At-AAMT-O-Me-L (0.384 ± 0.003 MBq/mouse, 19.18 ± 0.38 g, n = 6 for Table 3), ^211At-AAMT-O-Me-L (158.10 ± 2.94 kBq/mouse, 19.27 ± 0.64 g, n = 6) and ^211At-AAMT-O-Me-D (135.08 ± 2.35 kBq/mouse, 18.64 ± 0.97 g, n = 6), ^211At-AAMT-O-Et-L (0.682 ± 0.011 MBq/mouse, 20.25 ± 1.41 g, n = 6), ^211At-AAMT-O-Pr-L (0.927 ± 0.020 MBq/mouse, 21.74 ± 0.37 g, n = 6).
# [1] = Tissue distribution in ICR mice (normal animals); type: in vivo
# From the text: ICR mice (male, 5 weeks old) were purchased from Japan SLC (Shizuoka, Japan) and acclimated for one week prior to use. The doses in the distribution experiments were as follows: ^211At-AAMT-O-Me-L (0.407 ± 0.005 MBq/mouse, 31.64 ± 0.76 g, n = 6), ^211At-AAMT-O-Me-D (0.351 ± 0.004 MBq/mouse, 31.44 ± 0.94 g, n = 6), ^211At-AAMT-O-Et-L (0.685 ± 0.010 MBq/mouse, 24.14 ± 3.31 g, n = 6), ^211At-AAMT-O-Pr-L (1.09 ± 0.06 MBq/mouse, 26.33 ± 0.39 g, n = 6)
# LAT1-Tet/HEK293 cells = assay: Uptake versus LAT1 expression level (Dox-induced) in LAT1-Tet/HEK293 cells; type: cell-based; details: collection 30 min after treatment
# Description: Each cell line was seeded in 24 wells at 1 × 10^5 cells/mL and allowed to become sub-confluent on the day of the experiment. Cells were washed with PBS (-) (Fujifilm Wako Pure Chemical, Osaka, Japan) prior to the addition of the compound, which was then replaced with uptake buffer. After treating the cells with the same dose, they were collected at predetermined time points. The cell dose was measured using a γ-counter (Wizard^2 2480; PerkinElmer, Waltham, MA, USA), and the protein content of the sample was determined. Protein content was measured using the BCA method, and the dose was corrected using the protein content (Protein Assay BCA kit, Fujifilm Wako Pure Chemical).
# Figure 2 Comparison of uptake between the labeled compounds. (A) Relation between uptake ratio and LAT1 expression level. Uptake ratios were compared between LAT1-Tet/HEK293 cells. The Y-axis represents the uptake ratio, and the X-axis is concentration of Doxycycline (Dox) (TaKaRa Bio, Shiga, Japan). The collection time was 30 min after treatment. The expression of LAT1 increased with increasing amounts of Dox. (B) Comparison of uptake in PANC-1 cell line. The collection times were 0.5, 1, 5 and 10 min after treatment.
# The PANC-1 cell line was obtained from the RIKEN Cell Bank and maintained in RPMI 1640 medium (Fujifilm Wako Pure Chemical, Osaka, Japan) supplemented with 10% inactivated fetal bovine serum (Thermo Fisher Scientific, Waltham, MA, USA). Mock/HEK293, LAT1/HEK293, and LAT2/HEK203 cells were kindly provided by Dr. Kanai. Cell lines controlling LAT1 expression were constructed using the Tet-on system. HEK293 cells were obtained from the RIKEN Cell Bank and maintained in E-MEM (Fujifilm Wako Pure Chemical) supplemented with 10% inactivated fetal bovine serum (Thermo Fisher Scientific) and non-essential amino acids (Fujifilm Wako Pure Chemical). The expression vectors were purchased from VectorBuilder, Inc. (Kanagawa, Japan). The purified viral particle genes were transfected into HEK293 cells. Drug selection and cloning of the cell line (Tet-LAT1/HEK293) were performed. […]
smiles,measurement,setting,value
CCOc1ccc(C[C@](C)(N)C(=O)O)cc1[211At] [^211At-AAMT-O-Et-L],"Tissue distribution, Bladder",PANC-1 tumor model; 1 h after injection,15.41 ± 4.39 %ID/g
same,"Tissue distribution, Blood",PANC-1 tumor model; 1 h after injection,3.63 ± 0.43 %ID/g
same,"Tissue distribution, Bone",PANC-1 tumor model; 1 h after injection,1.92 ± 0.21 %ID/g
same,"Tissue distribution, Brain",PANC-1 tumor model; 1 h after injection,0.65 ± 0.11 %ID/g
same,"Tissue distribution, Cecum",PANC-1 tumor model; 1 h after injection,2.36 ± 0.52 %ID/g
same,"Tissue distribution, Colon",PANC-1 tumor model; 1 h after injection,3.80 ± 0.50 %ID/g
same,"Tissue distribution, Heart",PANC-1 tumor model; 1 h after injection,4.41 ± 0.46 %ID/g
same,"Tissue distribution, Kidney",PANC-1 tumor model; 1 h after injection,6.23 ± 0.94 %ID/g
same,"Tissue distribution, Liver",PANC-1 tumor model; 1 h after injection,2.54 ± 0.28 %ID/g
same,"Tissue distribution, Lung",PANC-1 tumor model; 1 h after injection,9.69 ± 1.20 %ID/g
same,"Tissue distribution, Pancreas",PANC-1 tumor model; 1 h after injection,4.56 ± 0.82 %ID/g
same,"Tissue distribution, Salivary glands",PANC-1 tumor model; 1 h after injection,13.69 ± 2.13 %ID/g
same,"Tissue distribution, Small intestine",PANC-1 tumor model; 1 h after injection,4.80 ± 0.63 %ID/g
same,"Tissue distribution, Spleen",PANC-1 tumor model; 1 h after injection,10.32 ± 4.17 %ID/g
same,"Tissue distribution, Stomach",PANC-1 tumor model; 1 h after injection,33.25 ± 8.36 %ID/g
same,"Tissue distribution, Testis",PANC-1 tumor model; 1 h after injection,3.29 ± 0.07 %ID/g
same,"Tissue distribution, Thyroid",PANC-1 tumor model; 1 h after injection,24.50 ± 4.40 %ID/g
same,"Tissue distribution, Tumor",PANC-1 tumor model; 1 h after injection,5.64 ± 0.91 %ID/g
same,"Tissue distribution, Bladder",PANC-1 tumor model; 3 h after injection,12.03 ± 3.42 %ID/g
same,"Tissue distribution, Blood",PANC-1 tumor model; 3 h after injection,2.23 ± 0.06 %ID/g
same,"Tissue distribution, Bone",PANC-1 tumor model; 3 h after injection,1.41 ± 0.16 %ID/g
same,"Tissue distribution, Brain",PANC-1 tumor model; 3 h after injection,0.36 ± 0.10 %ID/g
same,"Tissue distribution, Cecum",PANC-1 tumor model; 3 h after injection,2.80 ± 0.56 %ID/g
same,"Tissue distribution, Colon",PANC-1 tumor model; 3 h after injection,3.63 ± 0.34 %ID/g
same,"Tissue distribution, Heart",PANC-1 tumor model; 3 h after injection,5.15 ± 0.95 %ID/g
same,"Tissue distribution, Kidney",PANC-1 tumor model; 3 h after injection,3.74 ± 0.78 %ID/g
same,"Tissue distribution, Liver",PANC-1 tumor model; 3 h after injection,1.93 ± 0.23 %ID/g
same,"Tissue distribution, Lung",PANC-1 tumor model; 3 h after injection,10.67 ± 1.28 %ID/g
same,"Tissue distribution, Pancreas",PANC-1 tumor model; 3 h after injection,2.01 ± 0.20 %ID/g
same,"Tissue distribution, Salivary glands",PANC-1 tumor model; 3 h after injection,19.70 ± 2.93 %ID/g
same,"Tissue distribution, Small intestine",PANC-1 tumor model; 3 h after injection,3.23 ± 0.22 %ID/g
same,"Tissue distribution, Spleen",PANC-1 tumor model; 3 h after injection,13.31 ± 2.43 %ID/g
same,"Tissue distribution, Stomach",PANC-1 tumor model; 3 h after injection,18.47 ± 2.59 %ID/g
same,"Tissue distribution, Testis",PANC-1 tumor model; 3 h after injection,3.32 ± 0.33 %ID/g
same,"Tissue distribution, Thyroid",PANC-1 tumor model; 3 h after injection,31.26 ± 11.36 %ID/g
same,"Tissue distribution, Tumor",PANC-1 tumor model; 3 h after injection,5.24 ± 1.39 %ID/g
same,"Tissue distribution, Bladder",[1]; 1 h after injection,53.22 ± 43.79 %ID/g
same,"Tissue distribution, Blood",[1]; 1 h after injection,2.03 ± 0.61 %ID/g
same,"Tissue distribution, Bone",[1]; 1 h after injection,0.71 ± 0.32 %ID/g
same,"Tissue distribution, Brain",[1]; 1 h after injection,0.37 ± 0.07 %ID/g
same,"Tissue distribution, Cecum",[1]; 1 h after injection,0.68 ± 0.25 %ID/g
same,"Tissue distribution, Colon",[1]; 1 h after injection,8.32 ± 4.87 %ID/g
same,"Tissue distribution, Heart",[1]; 1 h after injection,6.14 ± 3.75 %ID/g
same,"Tissue distribution, Kidney",[1]; 1 h after injection,4.70 ± 1.68 %ID/g
same,"Tissue distribution, Liver",[1]; 1 h after injection,1.41 ± 0.33 %ID/g
same,"Tissue distribution, Lung",[1]; 1 h after injection,4.47 ± 1.34 %ID/g
same,"Tissue distribution, Pancreas",[1]; 1 h after injection,7.31 ± 4.45 %ID/g
same,"Tissue distribution, Salivary glands",[1]; 1 h after injection,7.08 ± 2.00 %ID/g
same,"Tissue distribution, Small intestine",[1]; 1 h after injection,12.85 ± 7.35 %ID/g
same,"Tissue distribution, Spleen",[1]; 1 h after injection,2.90 ± 0.95 %ID/g
same,"Tissue distribution, Stomach",[1]; 1 h after injection,19.50 ± 5.82 %ID/g
same,"Tissue distribution, Testis",[1]; 1 h after injection,2.36 ± 0.28 %ID/g
same,"Tissue distribution, Thymus",[1]; 1 h after injection,1.14 ± 0.68 %ID/g
same,"Tissue distribution, Thyroid",[1]; 1 h after injection,8.98 ± 4.12 %ID/g
same,"Tissue distribution, Bladder",[1]; 3 h after injection,21.28 ± 15.54 %ID/g
same,"Tissue distribution, Blood",[1]; 3 h after injection,0.87 ± 0.27 %ID/g
same,"Tissue distribution, Bone",[1]; 3 h after injection,1.00 ± 0.18 %ID/g
same,"Tissue distribution, Brain",[1]; 3 h after injection,0.13 ± 0.05 %ID/g
same,"Tissue distribution, Cecum",[1]; 3 h after injection,1.67 ± 0.24 %ID/g
same,"Tissue distribution, Colon",[1]; 3 h after injection,1.75 ± 0.49 %ID/g
same,"Tissue distribution, Heart",[1]; 3 h after injection,1.87 ± 0.80 %ID/g
same,"Tissue distribution, Kidney",[1]; 3 h after injection,1.56 ± 0.13 %ID/g
same,"Tissue distribution, Liver",[1]; 3 h after injection,1.06 ± 0.21 %ID/g
same,"Tissue distribution, Lung",[1]; 3 h after injection,4.93 ± 1.95 %ID/g
same,"Tissue distribution, Pancreas",[1]; 3 h after injection,1.20 ± 0.40 %ID/g
same,"Tissue distribution, Salivary glands",[1]; 3 h after injection,15.05 ± 7.81 %ID/g
same,"Tissue distribution, Small intestine",[1]; 3 h after injection,3.21 ± 0.88 %ID/g
same,"Tissue distribution, Spleen",[1]; 3 h after injection,2.09 ± 1.08 %ID/g
same,"Tissue distribution, Stomach",[1]; 3 h after injection,38.74 ± 10.11 %ID/g
same,"Tissue distribution, Testis",[1]; 3 h after injection,1.20 ± 0.36 %ID/g
same,"Tissue distribution, Thymus",[1]; 3 h after injection,0.26 ± 0.17 %ID/g
same,"Tissue distribution, Thyroid",[1]; 3 h after injection,20.22 ± 6.28 %ID/g
same,Uptake ratio versus LAT1 expression (doxycycline concentration),LAT1-Tet/HEK293 cells,lower cellular uptake when LAT1 expression increased
